In patent US20190328691A1, “ANTIBIOTIC THERAPY” (Boulos & Cooper Pharmaceuticals Pty Ltd, priority 2015, published 2019):
Like-named read-outs stand apart in the source and are kept apart here.

Assays:
[1] = system: Staphylococcus aureus (BAA-1717); test: Checkerboard combination / MIC assay with S. aureus BAA-1717 (MRSA); assay type: cell-based; conditions: for Effect of individual antibiotic combinations: S. aureus BAA-1717
Method: (§1) Colonies were suspended in PBS. The absorbance of each suspension was measured with a spectrophotometer, and then the suspension was adjusted to 1×10^6 CFU/mL. The testing inoculum was prepared within 20 minutes before adding to wells of the test plate. Final cellular density in the checkerboard assays was 5×10^5 CFU/mL.
(§2) The combination effect of antibacterial substances administered together was evaluated by an in vitro checkerboard combination method with Staphylococcus aureus (ATCC 29213) and Staphylococcus aureus (BAA-1717). Ramizol and Chlopam were tested alone in 11 points by two-fold serial titration and in combination with different commercial antibiotics which were tested in a 7-point titration alone and in combination with Ramizol and Chlopam using the checkerboard technique as recommended by the Clinical & Laboratory Standards Institute (CLSI. Methods for Dilution In Antimicrobial Susceptibility Tests for Bacteria That Grow Aerobically; Approved Standard-Eighth Edition. CLSI document M07-A8 (ISBN 1-56238-689-1). Vol. 29 No. 2. Clinical and Laboratory Standards Institute, USA, 2009). The commercial antibiotics were also tested alone. Twenty-four checkerboard tests were performed.
(§3) The starting concentration of Ramizol, Chlopam, and the commercial antibiotics was four fold of the MIC. The testing range for each combination was described in the following summary tables.
(§4) Compound dilutions of Ramizol and Chlopam were performed in 100% DMSO and the final DMSO concentration in all test wells was 2%. Growth control wells also included 2% DMSO. CLSI protocol was followed for medium, inoculum preparation, and endpoint reading. The commercial antibiotics were dissolved and diluted in the CLSI specified diluent. The final inoculum count for each strain was 5×10^5 CFU/mL.
Each test substance was dissolved and diluted in 100% DMSO or specified solvent. Each test substance dilution (2 μL) was added to 96 μL broth CAMHB. CAMHB seeded with S. aureus BAA-1717 at 1×10^6 CFU/mL (100 μL) was then added to the plate to generate a final cell count at 5×10^5 CFU/mL.
(§5) Assay plates were incubated and MIC endpoints were read as described in the MIC assay. FIC (Fraction Inhibitory Concentration) and FIC Index (FICI) values for each test condition and the average of FICI values of all pairwise combinations were calculated to determine if synergy or antagonism existed between the two substances. The FIC index was determined by calculating the sum of the ratios of MICs for both substances. Arithmetically, the FIC Index of a combination of Substance 1 and Substance 2 was defined as following: FICI=Σ[FIC(Substance 1)+FIC(Substance 2)]=[(MIC of Substance 1 in combination/MIC of Substance 1 alone)+(MIC of Substance 2 in combination/MIC of Substance 2 alone)]. Synergy is defined as the FICI (Σ)≤0.5; additivity as FICI (Σ)>0.5 to ≤1; indifference as FICI (Σ)>1 to ≤4; antagonism is defined as the FICI (Σ)>4 (Zinner and Blaser, J. Journal of Antimicrobial Chemotherapy (1986), 17, 1-5; Amin, et al BMC Complementary & Alternative Medicine (2015), 15, 59; Zuo, et al. Molecules (2011), 16, 9819-9826).

[2] = system: Staphylococcus aureus (ATCC 29213); test: Checkerboard combination / MIC assay with S. aureus ATCC 29213; assay type: cell-based; conditions: S. aureus ATCC 29213; for MIC: Staphylococcus aureus, read-out: MIC of antibiotic alone
Method: as §1, §2, §3, §4
Cefepime, Daptomycin, Linezolid, Mupirocin, Oxacillin and Vancomycin were also tested alone. Each test substance was dissolved and diluted in 100% DMSO or specified solvent. Each test substance dilution (2 μL) was added to 96 μL broth CAMHB. CAMHB seeded with S. aureus ATCC 29213 at 1×10^6 CFU/mL (100 μL) was then added to the plate to generate a final cell count at 5×10^5 CFU/mL.
as §5

CC(=O)NC[C@H]1CN(c2ccc(N3CCOCC3)c(F)c2)C(=O)O1 [Linezolid]
FICI of combination with Chlopam ([1]; Chlopam 0.001953 μg/mL + labelled antibiotic at MIC of same cell, S. aureus ATCC BAA-1717): 1.0 | MIC of antibiotic in combination with Chlopam ([1]; Chlopam 0.001953 μg/mL, S. aureus ATCC BAA-1717): 1 µg/mL | FICI of combination with Chlopam ([1]; Chlopam 0.003906 μg/mL + labelled antibiotic at MIC of same cell, S. aureus ATCC BAA-1717): 1.0 | MIC of antibiotic in combination with Chlopam ([1]; Chlopam 0.003906 μg/mL, S. aureus ATCC BAA-1717): 1 µg/mL | FICI of combination with Chlopam ([1]; Chlopam 0.0078125 μg/mL + labelled antibiotic at MIC of same cell, S. aureus ATCC BAA-1717): 1.0 | MIC of antibiotic in combination with Chlopam ([1]; Chlopam 0.0078125 μg/mL, S. aureus ATCC BAA-1717): 1 µg/mL | FICI of combination with Chlopam ([1]; Chlopam 0.015625 μg/mL + labelled antibiotic at MIC of same cell, S. aureus ATCC BAA-1717): 1.0 | MIC of antibiotic in combination with Chlopam ([1]; Chlopam 0.015625 μg/mL, S. aureus ATCC BAA-1717): 1 µg/mL | Effect of individual antibiotic combinations ([1]; Chlopam and Linezolid: 0.001953 and 1, 0.003901 and 1, 0.0078125 and 1, 0.015625 and 1 μg/mL): additive effect | FICI of combination with Ramizol ([1]; Ramizol 0.015625 μg/mL + labelled antibiotic at MIC of same cell, S. aureus ATCC BAA-1717): 1.0 | MIC of antibiotic in combination with Ramizol ([1]; Ramizol 0.015625 μg/mL, S. aureus ATCC BAA-1717): 1 µg/mL | FICI of combination with Ramizol ([1]; Ramizol 0.03125 μg/mL + labelled antibiotic at MIC of same cell, S. aureus ATCC BAA-1717): 1.0 | MIC of antibiotic in combination with Ramizol ([1]; Ramizol 0.03125 μg/mL, S. aureus ATCC BAA-1717): 1 µg/mL | FICI of combination with Ramizol ([1]; Ramizol 0.0625 μg/mL + labelled antibiotic at MIC of same cell, S. aureus ATCC BAA-1717): 1.0 | MIC of antibiotic in combination with Ramizol ([1]; Ramizol 0.0625 μg/mL, S. aureus ATCC BAA-1717): 1 µg/mL | FICI of combination with Ramizol ([1]; Ramizol 0.125 μg/mL + labelled antibiotic at MIC of same line, S. aureus ATCC BAA-1717): 1.0 | MIC of antibiotic in combination with Ramizol ([1]; Ramizol 0.125 μg/mL, S. aureus ATCC BAA-1717): 1 µg/mL | Effect of individual antibiotic combinations ([1]; Ramizol and linezolid: 0.015625 and 1, 0.03125 and 1, 0.0625 and 1, 0.125 and 1 μg/mL): additive effect | MIC ([1]; Staphylococcus aureus, ATCC BAA-1717 / BAA-1717, Table 4, checkerboard series with Chlopam, S. aureus ATCC BAA-1717, read-out: MIC of antibiotic alone): 1 µg/mL | MIC of antibiotic alone ([1]; Table 7, checkerboard series with Ramizol, S. aureus ATCC BAA-1717): 1 µg/mL | mean FICI of combination with Chlopam ([1]; labelled antibiotic + Chlopam, mean of all pairwise combinations, S. aureus ATCC BAA-1717): 1.2 | mean FICI of combination with Ramizol ([1]; labelled antibiotic + Ramizol, mean of all pairwise combinations, S. aureus ATCC BAA-1717): 1.2 | FICI of combination with Chlopam ([2]; Chlopam 0.003906 μg/mL + labelled antibiotic at MIC of same cell): 1.0 | MIC of antibiotic in combination with Chlopam ([2]; Chlopam 0.003906 μg/mL): 2 µg/mL | FICI of combination with Chlopam ([2]; Chlopam 0.0078125 μg/mL + labelled antibiotic at MIC of same cell): 1.0 | MIC of antibiotic in combination with Chlopam ([2]; Chlopam 0.0078125 μg/mL): 2 µg/mL | FICI of combination with Chlopam ([2]; Chlopam 0.015625 μg/mL + labelled antibiotic at MIC of same cell): 1.0 | MIC of antibiotic in combination with Chlopam ([2]; Chlopam 0.015625 μg/mL): 2 µg/mL | FICI of combination with Chlopam ([2]; Chlopam 0.125 μg/mL + labelled antibiotic at MIC of same line): 0.8 | MIC of antibiotic in combination with Chlopam ([2]; Chlopam 0.125 μg/mL): 1 µg/mL | FICI of combination with Chlopam ([2]; Chlopam 0.25 μg/mL + labelled antibiotic at MIC of same cell): 0.8 | MIC of antibiotic in combination with Chlopam ([2]; Chlopam 0.25 μg/mL): 0.5 µg/mL | FICI of combination with Chlopam ([2]; Chlopam 0.5 μg/mL + labelled antibiotic at MIC of same cell): 0.6 | MIC of antibiotic in combination with Chlopam ([2]; Chlopam 0.5 μg/mL): 0.25 µg/mL | Effect of individual antibiotic combinations ([2]; Chlopam and Linezolid: 0.003901 and 2, 0.0078125 and 2, 0.015625 and 2, 0.125 and 1, 0.25 and 0.5, 0.5 and 0.25 μg/mL): additive effect | FICI of combination with Ramizol ([2]; Ramizol 0.015625 μg/mL + labelled antibiotic at MIC of same cell): 1.0 | MIC of antibiotic in combination with Ramizol ([2]; Ramizol 0.015625 μg/mL): 4 µg/mL | FICI of combination with Ramizol ([2]; Ramizol 0.03125 μg/mL + labelled antibiotic at MIC of same cell): 1.0 | MIC of antibiotic in combination with Ramizol ([2]; Ramizol 0.03125 μg/mL): 4 µg/mL | FICI of combination with Ramizol ([2]; Ramizol 0.0625 μg/mL + labelled antibiotic at MIC of same cell): 1.0 | MIC of antibiotic in combination with Ramizol ([2]; Ramizol 0.0625 μg/mL): 4 µg/mL | FICI of combination with Ramizol ([2]; Ramizol 0.125 μg/mL + labelled antibiotic at MIC of same cell): 1.0 | MIC of antibiotic in combination with Ramizol ([2]; Ramizol 0.125 μg/mL): 4 µg/mL | FICI of combination with Ramizol ([2]; Ramizol 0.25 μg/mL + labelled antibiotic at MIC of same cell): 1.0 | MIC of antibiotic in combination with Ramizol ([2]; Ramizol 0.25 μg/mL): 4 µg/mL | Effect of individual antibiotic combinations ([2]; Ramizol and linezolid: 0.015625 and 4, 0.03125 and 4, 0.0625 and 4, 0.125 and 4, 0.25 and 4 μg/mL): additive effect | MIC ([2]; ATCC29213, Table 4, checkerboard series with Chlopam): 2 µg/mL | MIC ([2]; ATCC29213, Table 7, checkerboard series with Ramizol): 4 µg/mL | Effect of the combinations with Chlopam (by mean FICI) ([2]; labelled antibiotic + Chlopam): additive effect | mean FICI of combination with Chlopam ([2]; labelled antibiotic + Chlopam, mean of all pairwise combinations): 0.9 | mean FICI of combination with Ramizol ([2]; labelled antibiotic + Ramizol, mean of all pairwise combinations): 1.1
